The target of one experiment is human Factor XIa (Homo sapiens (Human), UniProt P03951). In words: Factor XIa Assay. The class given is biochemical. To be noted: purified human Factor XIa 40 pM, Z-Gly-Pro-Arg-AFC 100 μM, pH 7.4; read-out: FXIa Ki. The method, boiled down:
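Ki derived from the dependence of Vo/Vi on inhibitor concentration under a competitive-inhibition model, after pre-equilibration of enzyme and inhibitor. Reaction: 40 pM human FXIa, 100 μM Z-Gly-Pro-Arg-AFC, HEPES 50 mM pH 7.4 with NaCl, CaCl2 and PEG 8000; run at room temperature or 37° C.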

In the next experiment the target is Human plasma kallikrein (Homo sapiens (Human), UniProt P03952). In words: Kallikrein Assay. The class given is biochemical. To be noted: purified Human plasma kallikrein 0.5 nM, Acetyl-K-P-R-AFC, pH 7.4; Ki from IC50 by Cheng Prusoff. As for the experimental part: The effectiveness of a compound of the present invention as an inhibitor of Kallikrein can be determined using a relevant purified serine protease, and an appropriate synthetic substrate. The rate of hydrolysis of the chromogenic or fluorogenic substrate by the relevant serine protease was measured both in the absence and presence of compounds of the present invention. Assays were conducted at room temperature or at 37° C. […] A decrease in the rate of fluorescence change in the presence of inhibitor is indicative of enzyme inhibition. Such methods are known to one skilled in the art. The results of this assay are expressed as the inhibitory constant, Ki.
Kallikrein determinations were made in 50 mM HEPES buffer at pH 7.4 containing 150 mM NaCl, 5 mM CaCl2, and 0.1% PEG 8000 (polyethylene glycol; Fisher Scientific). Determinations were made using purified Human plasma kallikrein at a final concentration of 0.5 nM (Enzyme Research Laboratories) and the synthetic substrate, Acetyl-K-P-R-AFC (Sigma #C6608) at a concentration of […].
Times required to achieve equilibration between enzyme and inhibitor were determined in control experiments. The reactions were performed under linear progress curve conditions and fluorescence increase measured at 405 Ex/510 Em nm. […] IC50 was determined by inflection point from a four parameter logistic curve fit. Ki was calculated using the Cheng Prusoff equation, Ki=IC50/(1+([S]/Km)).

Chain of Human plasma kallikrein (P03952 391-638): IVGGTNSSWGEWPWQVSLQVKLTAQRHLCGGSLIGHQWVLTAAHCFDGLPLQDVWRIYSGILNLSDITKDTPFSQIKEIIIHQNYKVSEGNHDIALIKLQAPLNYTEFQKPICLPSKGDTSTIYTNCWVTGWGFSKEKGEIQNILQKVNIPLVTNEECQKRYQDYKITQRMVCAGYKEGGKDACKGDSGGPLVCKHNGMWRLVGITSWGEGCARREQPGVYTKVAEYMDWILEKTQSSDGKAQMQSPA
Chain of Human plasma kallikrein (P03952 20-390 partner): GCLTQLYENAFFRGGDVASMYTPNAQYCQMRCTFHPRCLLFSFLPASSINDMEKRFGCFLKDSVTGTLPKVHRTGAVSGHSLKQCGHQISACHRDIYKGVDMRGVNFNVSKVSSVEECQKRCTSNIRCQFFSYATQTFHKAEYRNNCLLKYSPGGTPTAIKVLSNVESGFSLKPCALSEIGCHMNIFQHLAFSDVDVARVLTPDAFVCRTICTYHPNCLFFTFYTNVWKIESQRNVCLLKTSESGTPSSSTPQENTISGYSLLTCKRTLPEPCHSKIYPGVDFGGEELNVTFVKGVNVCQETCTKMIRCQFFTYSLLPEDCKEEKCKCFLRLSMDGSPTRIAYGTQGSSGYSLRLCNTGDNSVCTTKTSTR
Chain of human Factor XIa (P03951 388-625): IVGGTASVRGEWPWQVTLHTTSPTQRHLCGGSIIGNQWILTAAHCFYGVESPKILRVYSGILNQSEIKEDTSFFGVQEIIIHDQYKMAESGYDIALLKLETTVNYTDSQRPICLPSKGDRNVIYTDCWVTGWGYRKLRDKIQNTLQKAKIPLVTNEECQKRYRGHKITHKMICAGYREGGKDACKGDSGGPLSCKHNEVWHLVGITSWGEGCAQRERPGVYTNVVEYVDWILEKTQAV
Chain of human Factor XIa (P03951 19-387 partner): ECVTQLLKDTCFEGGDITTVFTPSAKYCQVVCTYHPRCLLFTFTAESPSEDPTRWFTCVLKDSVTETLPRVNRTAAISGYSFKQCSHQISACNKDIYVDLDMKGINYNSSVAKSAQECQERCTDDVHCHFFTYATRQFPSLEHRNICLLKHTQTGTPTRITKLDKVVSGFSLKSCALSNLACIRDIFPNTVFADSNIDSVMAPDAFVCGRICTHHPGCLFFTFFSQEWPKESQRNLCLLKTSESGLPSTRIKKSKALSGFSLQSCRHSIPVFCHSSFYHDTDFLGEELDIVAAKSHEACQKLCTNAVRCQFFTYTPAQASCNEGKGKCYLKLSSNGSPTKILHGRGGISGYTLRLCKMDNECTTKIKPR

Usually Ki stands for a dissociation constant, usually derived from enzyme kinetics or from competition with a known ligand. Regarding `COC(=O)Nc1ccc(C(=O)N[C@@H](CC2CC2(F)F)C(=O)N2CCC[C@@]3(C2)OC(=O)Nc2ccc(Cl)c(F)c23)cc1` (single isomer, unassigned) [Example 67A], the Ki at human Factor XIa was found to be 11.6 nM; at Human plasma kallikrein, 2.9 nM.

For the compound `COC(=O)Nc1ccc(C(=O)N[C@@H](CC2CC2(F)F)C(=O)N2CCC[C@@]3(C2)OC(=O)Nc2ccc(Cl)c(F)c23)cc1` (single isomer, unassigned) [Example 67B], the Ki on human Factor XIa is 7.88 nM; on Human plasma kallikrein, 1.8 nM.

Turning to `COC(=O)Nc1ccc(C(=O)NC(C[C@@H]2CCCO2)C(=O)N2CCC[C@@]3(C2)OC(=O)Nc2ccc(Cl)c(F)c23)cc1` (single isomer, unassigned) [Example 116A], the results for the Ki at human Factor XIa and on Human plasma kallikrein were 7.51 nM and 4.78 nM, respectively.

In the case of `COC(=O)Nc1ccc(C(=O)NC(C[C@H]2CCCO2)C(=O)N2CCC[C@@]3(C2)OC(=O)Nc2ccc(Cl)c(F)c23)cc1` (single isomer, unassigned) [Example 117A], the Ki at human Factor XIa was 18.7 nM; on Human plasma kallikrein, 10.6 nM.

`COC(=O)Nc1ccc(C(=O)N[C@@H](Cc2ccccc2)C(=O)N2CCC[C@@]3(C2)OC(=O)Nc2ccc(Cl)cc23)cc1` [Example 3b, methyl (4-(((S)-1-((R)-6-chloro-2-oxo-1,2-dihydrospiro[benzo[d][1,3]oxazine-4,3′-piperidin]-1′-yl)-1-oxo-3-phenylpropan-2-yl)carbamoyl)phenyl)carbamate]: the Ki was 1.5 nM at human Factor XIa and 1.55 nM at Human plasma kallikrein.

At Human plasma kallikrein, `COC(=O)Nc1ccc(C(=O)N[C@@H](CC2(OC)CC2)C(=O)N2CCC[C@@]3(C2)OC(=O)Nc2ccc(Cl)c(F)c23)cc1` [Example 115, methyl (4-(((S)-1-((R)-6-chloro-5-fluoro-2-oxo-1,2-dihydrospiro[benzo[d][1,3]oxazine-4,3′-piperidin]-1′-yl)-3-(1-methoxycyclopropyl)-1-oxopropan-2-yl)carbamoyl)phenyl)carbamate] gave a Ki of 0.6 nM.

`COC(=O)Nc1ccc(C(=O)N[C@@H](C[C@H](C)OC)C(=O)N2CCC[C@@]3(C2)OC(=O)Nc2ccc(Cl)c(F)c23)cc1` [Example 118A, methyl (4-(((2S,4S)-1-((R)-6-chloro-5-fluoro-2-oxo-1,2-dihydrospiro[benzo[d][1,3]oxazine-4,3′-piperidin]-1′-yl)-4-methoxy-1-oxopentan-2-yl)carbamoyl)phenyl)carbamate] came in with a Ki on Human plasma kallikrein of 1.79 nM.

On to `COC(=O)Nc1ccc(C(=O)N[C@@H](C[C@@H](C)OC)C(=O)N2CCC[C@@]3(C2)OC(=O)Nc2ccc(Cl)c(F)c23)cc1` [Example 118B, methyl (4-(((2S,4R)-1-((R)-6-chloro-5-fluoro-2-oxo-1,2-dihydrospiro[benzo[d][1,3]oxazine-4,3′-piperidin]-1′-yl)-4-methoxy-1-oxopentan-2-yl)carbamoyl)phenyl)carbamate], for which the affinity at Human plasma kallikrein corresponds to a Ki of 1.06 nM.

Compound `O=C(Nc1ccc(C(=O)N[C@@H](Cc2cccc(F)c2)C(=O)N2CCC[C@@]3(C2)OC(=O)Nc2ccc(Cl)c(F)c23)cc1)OCCP(=O)(O)O` [Example 271, (2-(((4-(((S)-1-((R)-6-chloro-5-fluoro-2-oxo-1,2-dihydrospiro[benzo[d][1,3]oxazine-4,3′-piperidin]-1′-yl)-3-(3-fluorophenyl)-1-oxopropan-2-yl)carbamoyl)phenyl)carbamoyl)oxy)ethyl)phosphonic acid] showed a Ki at Human plasma kallikrein of 0.6 nM.

Take `N#Cc1ccc(S(=O)(=O)N[C@@H](Cc2ccccc2)C(=O)N2CCC3(C2)OC(=O)Nc2ccc(Cl)cc23)cc1` (stereo partly drawn) [Example 280, N-((2S)-1-(6-chloro-2-oxo-1,2-dihydrospiro[benzo[d][1,3]oxazine-4,3′-pyrrolidin]-1′-yl)-1-oxo-3-phenylpropan-2-yl)-4-cyanobenzenesulfonamide]: the Ki at human Factor XIa was 5000 nM.

Take `CNC(=O)Nc1ccc(S(=O)(=O)N[C@@H](Cc2ccccc2)C(=O)N2CCC3(C2)OC(=O)Nc2ccc(Cl)cc23)c(Cl)c1` (stereo partly drawn) [Example 281, 2-chloro-N-((2S)-1-(6-chloro-2-oxo-1,2-dihydrospiro[benzo[d][1,3]oxazine-4,3′-pyrrolidin]-1′-yl)-1-oxo-3-phenylpropan-2-yl)-4-(3-methylureido)benzenesulfonamide]: the Ki on human Factor XIa is at least 5000 nM.

`O=C1COc2ccc(S(=O)(=O)N[C@@H](Cc3ccccc3)C(=O)N3CCC4(C3)OC(=O)Nc3ccc(Cl)cc34)cc2N1` (stereo partly drawn) [Example 282, N-((2S)-1-(6-chloro-2-oxo-1,2-dihydrospiro[benzo[d][1,3]oxazine-4,3′-pyrrolidin]-1′-yl)-1-oxo-3-phenylpropan-2-yl)-3-oxo-3,4-dihydro-2H-benzo[b][1,4]oxazine-6-sulfonamide]: the Ki on human Factor XIa is at least 5000 nM.

For the compound `O=C1Nc2ccc(Cl)cc2C2(CCN(C(=O)[C@H](Cc3ccccc3)NS(=O)(=O)c3ccc(C(=O)O)cc3)C2)O1` (stereo partly drawn) [Example 283, 4-(N-((2S)-1-(6-chloro-2-oxo-1,2-dihydrospiro[benzo[d][1,3]oxazine-4,3′-pyrrolidin]-1′-yl)-1-oxo-3-phenylpropan-2-yl)sulfamoyl)benzoic acid], the Ki at human Factor XIa was at least 5000 nM.

Take `CC(=O)Nc1ccc(S(=O)(=O)N[C@@H](Cc2ccccc2)C(=O)N2CCC3(C2)OC(=O)Nc2ccc(Cl)cc23)cc1` (stereo partly drawn) [Example 284, N-(4-(N-((2S)-1-(6-chloro-2-oxo-1,2-dihydrospiro[benzo[d][1,3]oxazine-4,3′-pyrrolidin]-1′-yl)-1-oxo-3-phenylpropan-2-yl)sulfamoyl)phenyl)acetamide]: the Ki at human Factor XIa was at least 5000 nM.

`O=C1Nc2ccc(Cl)cc2C2(CCN(C(=O)[C@H](Cc3ccccc3)NS(=O)(=O)c3ccc4oc(O)nc4c3)C2)O1` (stereo partly drawn) [Example 285, N-((2S)-1-(6-chloro-2-oxo-1,2-dihydrospiro[benzo[d][1,3]oxazine-4,3′-pyrrolidin]-1′-yl)-1-oxo-3-phenylpropan-2-yl)-2-hydroxybenzo[d]oxazole-5-sulfonamide]: the Ki at human Factor XIa was at least 5000 nM.

Turning to `CO[C@@H]1C[C@@H](C(=O)N2CC[C@@]3(C2)OC(=O)Nc2ccc(Cl)cc23)N(C(=O)c2ccc3nc(N)sc3c2)C1` [Example 290, (R)-1′-((2S,4R)-1-(2-aminobenzo[d]thiazole-6-carbonyl)-4-methoxypyrrolidine-2-carbonyl)-6-chlorospiro[benzo[d][1,3]oxazine-4,3′-pyrrolidin]-2(1H)-one], at human Factor XIa, the Ki was found to be 2400 nM.

Regarding `Nc1nc2ccc(C(=O)N3C[C@H](F)C[C@H]3C(=O)N3CC[C@@]4(C3)OC(=O)Nc3ccc(Cl)cc34)cc2s1` [Example 291, (R)-1′-((2S,4R)-1-(2-aminobenzo[d]thiazole-6-carbonyl)-4-fluoropyrrolidine-2-carbonyl)-6-chlorospiro[benzo[d][1,3]oxazine-4,3′-pyrrolidin]-2(1H)-one], at human Factor XIa, the Ki was determined as 4620 nM.

For `Nc1nc2ccc(C(=O)N3C[C@H](Cc4ccccc4)C[C@H]3C(=O)N3CC[C@@]4(C3)OC(=O)Nc3ccc(Cl)cc34)cc2s1` [Example 292, (R)-1′-((2S,4R)-1-(2-aminobenzo[d]thiazole-6-carbonyl)-4-benzylpyrrolidine-2-carbonyl)-6-chlorospiro[benzo[d][1,3]oxazine-4,3′-pyrrolidin]-2(1H)-one], on human Factor XIa, the inhibition constant Ki was found to be 1870 nM.

As to `O=C1Nc2ccc(Cl)cc2[C@@]2(CCN(C(=O)[C@H](Cc3ccccc3)Nc3ncc(C(=O)O)cc3F)C2)O1` [Example 294, 6-(((S)-1-((R)-6-chloro-2-oxo-1,2-dihydrospiro[benzo[d][1,3]oxazine-4,3′-pyrrolidin]-1′-yl)-1-oxo-3-phenylpropan-2-yl)amino)-5-fluoronicotinic acid], the Ki at human Factor XIa was 10000 nM.

In the case of `O=C1Nc2ccc(Cl)cc2[C@@]2(CCCN(C(=O)[C@H](Cc3ccccc3)Nc3ccc(-c4ccc(O)nc4)cn3)C2)O1` [Example 295, (R)-6-chloro-1′-((6′-hydroxy-[3,3′-bipyridin]-6-yl)-L-phenylalanyl)spiro[benzo[d][1,3]oxazine-4,3′-piperidin]-2(1H)-one], the Ki on human Factor XIa was 10000 nM.

On to `O=C1Nc2ccc(Cl)cc2[C@@]2(CCCN(C(=O)[C@H](Cc3ccccc3)Nc3ccc(-c4cc[nH]n4)cn3)C2)O1` [Example 296, (R)-1′-((5-(1H-pyrazol-3-yl)pyridin-2-yl)-L-phenylalanyl)-6-chlorospiro[benzo[d][1,3]oxazine-4,3′-piperidin]-2(1H)-one], for which the Ki on human Factor XIa was found to be 10000 nM.

For the compound `O=C1Nc2ccc(Cl)cc2[C@@]2(CCCN(C(=O)[C@H](Cc3ccccc3)Nc3ccc(-c4cccc(C(=O)O)c4)cn3)C2)O1` [Example 297, 3-(6-(((S)-1-((R)-6-chloro-2-oxo-1,2-dihydrospiro[benzo[d][1,3]oxazine-4,3′-piperidin]-1′-yl)-1-oxo-3-phenylpropan-2-yl)amino)pyridin-3-yl)benzoic acid], the Ki on human Factor XIa turned out to be 10000 nM.

The values are drawn from patent US10093683B2, “Factor XIa inhibitors” (Merck Sharp & Dohme Corp., priority 2014, dated 2018).
